Laboratory results: patent publication US9060993B2, “Compositions and methods for treating cancer” (The Trustees of the University of Pennsylvania, priority 2003, dated 2015)
One block for each molecule: values may come before it.

Legend:
[1] = molecular target: T1, ATP citrate lyase (Mus musculus, UniProt Q91V92); test: ATP citrate lyase activity in cellular extracts (malate dehydrogenase coupled, NADH consumption at 340 nm); assay type: biochemical; conditions: mitogen stimulated cell extracts
T1 construct: is added to mitogen stimulated cell extracts with an IC50 of approximately 3 μM; endogenous in cells; host or cells: IL-3-dependent cell line (FL5.12), mitogen-stimulated; cytosolic extract
T1 sequence (Q91V92 1-1091): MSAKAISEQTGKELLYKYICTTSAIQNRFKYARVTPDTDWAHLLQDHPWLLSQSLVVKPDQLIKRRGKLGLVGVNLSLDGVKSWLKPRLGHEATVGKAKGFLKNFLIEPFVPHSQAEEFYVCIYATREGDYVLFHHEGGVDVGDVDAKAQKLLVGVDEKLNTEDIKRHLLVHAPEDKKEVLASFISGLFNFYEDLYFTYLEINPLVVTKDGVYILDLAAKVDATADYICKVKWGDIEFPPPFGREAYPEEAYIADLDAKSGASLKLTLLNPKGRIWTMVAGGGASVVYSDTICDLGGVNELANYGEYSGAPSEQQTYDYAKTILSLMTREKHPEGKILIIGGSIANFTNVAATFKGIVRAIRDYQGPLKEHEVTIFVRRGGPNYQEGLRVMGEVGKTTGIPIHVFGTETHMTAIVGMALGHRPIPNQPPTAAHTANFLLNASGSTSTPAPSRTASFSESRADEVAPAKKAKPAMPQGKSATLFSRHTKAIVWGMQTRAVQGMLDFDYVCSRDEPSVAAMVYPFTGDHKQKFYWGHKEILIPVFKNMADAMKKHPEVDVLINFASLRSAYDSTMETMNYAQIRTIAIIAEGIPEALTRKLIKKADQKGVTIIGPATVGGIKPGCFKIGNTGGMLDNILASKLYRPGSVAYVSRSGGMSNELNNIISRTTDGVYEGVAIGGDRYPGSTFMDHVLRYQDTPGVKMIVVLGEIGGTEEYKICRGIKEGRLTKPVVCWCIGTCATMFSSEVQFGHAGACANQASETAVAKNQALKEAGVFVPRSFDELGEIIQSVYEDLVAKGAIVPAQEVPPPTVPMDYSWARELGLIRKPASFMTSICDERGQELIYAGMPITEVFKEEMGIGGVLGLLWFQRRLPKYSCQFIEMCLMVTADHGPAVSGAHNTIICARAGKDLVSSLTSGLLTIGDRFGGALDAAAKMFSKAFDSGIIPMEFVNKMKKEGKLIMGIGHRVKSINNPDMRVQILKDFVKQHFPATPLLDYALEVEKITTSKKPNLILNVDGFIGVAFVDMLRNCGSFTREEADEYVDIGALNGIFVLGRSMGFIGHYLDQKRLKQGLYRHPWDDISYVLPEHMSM
Procedure: To investigate the potential induction of ATP citrate lyase in response to mitogen stimulation of cell proliferation, an assay was developed to quantitate ATP citrate lyase (ACL) activity in cellular extracts. As a positive control, stable transfectants of a cell line dependent on IL-3 for the induction of cell proliferation was also produced. The cytosolic extracts from the wild type cells and ATP citrate lyase transfected cells were analyzed by determining the level of ATP citrate lyase activity per 10^6 cells as determined by the malate dehydrogenase catalyzed reduction of oxaloacetate by NADH. NADH consumption was measured by monitoring the reaction at 340 nm. Assays were run by providing citrate at 100 μM in the presence of 5 mM ATP and 300 μM of CoA.

[2] = tested on: FL5.12 cells; test: Cell proliferation and survival of IL-3 stimulated FL5.12 cells in culture; assay type: cell-based
Procedure: As a result, we have investigated the ability of hydroxycitrate to inhibit the proliferative response of FL5.12 cells stimulated by interleukin-3. […] The IC50 of this effect approximates the efficacy of hydroxycitrate in inhibiting ACL-dependent fatty acid synthesis as reported by others (Pearce et al. 1998).
(§1) When 3-carbox-11-(2,4-dichlorophenyl)-3,5dihydroxyundecanoic acid (see FIG. 4 for structures) is added to mitogen stimulated cell extracts with an IC50 of approximately 3 μM and when cells were treated with a γ-lactone derivative that is cell permeant, the cell proliferation was inhibited at approximately a 10 μM concentration and both cell proliferation and cell survival were inhibited at 30 μM concentrations (FIG. 6).

[3] = tested on: mitogen-stimulated cells and proliferating transformed cell cultures; test: Cell cycle analysis of mitogen-stimulated cells and proliferating transformed cell cultures; assay type: cell-based; conditions: 30 μM; FIG. 8
Procedure: as §1

[4] = tested on: hematopoietic IL3-dependent cell lines; test: In vitro apoptosis assay (Annexin V / propidium iodide flow cytometry); assay type: cell-based; conditions: 30 μM; FIG. 9
Procedure: Remove 500 μl of treated or untreated cells (at concentrations of 0.5-1×10^6 cells/ml) to a FACS tube and add 50 μl of 10× Annexin V binding buffer (BD Biosciences Pharmingen, San Diego, Calif.) to each tube. Stain cells with Annexin V-FITC (BD Biosciences Phanningen, San Diego, Calif. ) using 4 μl Annexin V-FITC and propidium iodide (Molecular Probes, Eugene, Oreg.) at a final concentration of 3 μg/ml of cells. The cells are preferably hematopoietic IL3-dependent cell lines such as for example IL3-dependent FL5.12 pro-B cells transfected with different transgenes (Bcl-xL, myrAkt) or vector control plasmids and IL3-dependent cells isolated from the bone marrow of Bax−/−Bak−/− knockout mice. Incubate at 37° for 30 minutes. Perform flow cytometry. Early apoptotic cells are Annexin V positive, propidium iodide negative while late apoptotic cells are both Annexin V and propidium iodide positive.
as §1

[5] = tested on: cells transfected with the oncogene Bcl-xL; test: Proliferation and cell death of Bcl-xL-transfected cells in presence or absence of the mitogen IL-3; assay type: cell-based; conditions: 30 μM, FIG. 11
[6] = tested on: Bax/Bak-deficient, IL-3-dependent cell lines; test: Mitogen-induced cell growth of Bax/Bak-deficient, IL-3-dependent cell lines; assay type: cell-based, mice; conditions: 30 μM, resting cells treated with IL-3; FIG. 14

IC50 [1]: ~3 µM
SMILES: O=C(O)CC(O)(CC(O)CCCCCCc1ccc(Cl)cc1Cl)C(=O)O (centres unmarked) [3-carbox-11-(2,4-dichlorophenyl)-3,5dihydroxyundecanoic acid]

SMILES: O=C(O)CC(O)(C(=O)O)C(O)C(=O)O (centres unmarked) [hydroxycitrate]
overall cell number and viability of cells in culture ([2]; added to IL-3-containing cultures of FL5.12, FIG. 3): progressive decline in the overall cell number and viability

SMILES: O=C(O)C[C@@]1(O)C[C@@H](CCCCCCc2ccc(Cl)cc2Cl)OC1=O [γ-lactone derivative]
concentration at which both cell proliferation and cell survival were inhibited ([2]; FIG. 6): 30 µM
concentration at which cell proliferation was inhibited ([2]; cells treated with cell permeant γ-lactone, FIG. 6): ~10 µM
inhibition of cell proliferation in each independent cell clone ([2]; immortalized hematopoietic cells, independent clones, doses between 10 and 30 μM, FIG. 7): approximately 50%
cell cycle effect [3]: G1 arrest
annexin-V positivity (induction of apoptosis) [4]: rapid induction of the annexin-V positivity
cell death ([5]; in presence of IL-3): induction of apoptotic cell death
mitogen-induced cell proliferation ([5]; in presence of IL-3): near complete inhibition
toxicity in nongrowing cells ([5]; nongrowing cells (IL-3 withdrawal)): relatively nontoxic
mitogen-induced cell growth [6]: nearly completely inhibited
